Results as given in patent US20110288154A1, “RNA Interference Mediated Inhibition of Epithelial Sodium Channel (ENaC) Gene Expression Using Short Interfering Nucleic Acid (siNA)” (MERCK & CO., INC., priority 2008, published 2011).
[invAb] = inverted abasic unit; m = 2'-O-methyl; r = 2'-OH (RNA); f = 2'-fluoro

Tested on: mSCNN1A mRNA
Assay: Screening of ENaCα siNAs in mouse NIH 3T3 cells (quantitative RT-PCR)
Type: cell-based
Design: Percent Reduction of the mSCNN1A mRNA relative to a non-targeting control siNA / Mouse % KD (efficacy of ENaCα mRNA knockdown): concentration or dose not given beside the values
Details: for Mean (mSCNN1A expression normalized to the level of m36B4) / Percent Reduction of the mSCNN1A mRNA relative to a non-targeting control siNA / Avg ENaCα Expression (mSCNN1A) / Avg 36B4 Expression: mouse NIH 3T3 cells, n = 3; for Mean (mSCNN1A expression normalized to the level of m36B4) / Percent Reduction of the mSCNN1A mRNA relative to a non-targeting control siNA / Avg 36B4 Expression: 24 hours post-transfection; for Avg ENaCα Expression (mSCNN1A): harvested 24 hours post-transfection; for Avg 36B4 Expression: housekeeping gene used for normalisation
Procedure: siNA constructs (Table 1b) may be tested for efficacy in reducing ENaC RNA expression in, for example, A549 human lung carcinoma cells. A549 (human; ATCC cat# CCL-185) cells were cultured at 37° C. in the presence of 5% CO2 and grown in Ham's F12K medium with 2 mM L-glutamine adjusted to contain 1.5 g/L sodium bicarbonate and supplemented with fetal bovine serum at a final concentration of 10% and 100 U/mL penicillin. The A549 cells were plated approximately 24 hours before transfection in 96-well plates at 7,500 cells/well, 100 μl/well. After 24 hours complexes containing siNA and Lipofectamine 2000 (Invitrogen) were created as follows: a solution of Lipofectamine 2000 in OPTI-MEM was prepared containing Lipofectamine 2000 at a final concentration of 14 μg/ml. In parallel, solutions of the siNAs were prepared in OPTI-MEM at a final concentration of 150 nM. After both solutions were incubated at 20° C. for 20 minutes an equal volume of the siNA solutions and the Lipofectamine 2000 solution were added together for each of the siNAs. The resultant solution has the siNAs at a final concentration of 75 nM and Lipofectamine 2000 at a final concentration of 7 μg/ml. This solution was incubated at 20° C. for 20 minutes. After incubation 50 μl of the solution were added to each of the wells (in triplicate). The final concentration of siNA in each well was 25 nM and the final concentration of Lipofectamine 2000 in each well was 2.33 μg/ml. The plates were incubated for 48 hours with no change of media before harvesting. Dose response curves were determined in a similar manner with each concentration being done in triplicate and maintaining a constant amount of Lipofectamine 2000 in each transfection.
A series of probes and primers were used to detect the various mRNA transcripts of the genes of ENaCa and GAPDH in mouse, rat, and human cell lines. The assays were performed on an ABI 7500 instrument, according to the manufacturer's instructions. Within each experiment, the baseline was set in the exponential phase of the amplification curve, and based on the intersection point of the baselines with the amplification curve, a Ct value was assigned by the instrument. This Ct value was then assigned a QTY value based on the Standard Curve. The standard curve in the various experiments herein used 1 ng to 300 ng of RNA extracted from the same cell line used for the experimental transfections.
All IC50 values were calculated from the data using GraphPad Prizm software, specifically a sigmoidal, variable slope curve for simple ligand binding. Also, unless otherwise indicated, all calculations of the efficacy and potency (e.g., % knockdown) of the siNAs were done relative to a non-targeting control siNA. If reported, P-values were computed using The Students t-test, including the Welch Correction for unequal variances.
In all of the calculations of the % knock-down of mRNA, the calculation was made relative to the normalized level of expression of the gene of interest in the samples treated with the non-targeting control (NTC) unless otherwise indicated. The gene of interest expression level was divided by the level of expression of GAPDH or 36B4 (depending on the species) in each sample. The three replicates for each condition in each experiment were averaged and the standard deviation of those samples was calculated. The following formula was then used to calculate the % of knock-down of the gene of interest:
The ENaCα siNAs were designed and synthesized as described previously. The siNAs were screened in three cell lines. Human A549 cells, mouse NIH 3T3 and Rat H-4-II-E cells. The data from the screen of ENaCa siNAs in all three species is shown in Tables 3a, 3b, 4a, 4b, 5a, and 5b and a summary of the data for certain siNA molecules is presented in Table 6. Each screen was performed at 24 hrs. The decision to use this time point was based upon the degree of knockdown of the mRNA seen at that time point.

B ccAuccGccuGGuGuGcuc TTB / GAGcAcAccAGGcGGAuGGUU (chain 1 CCAUCCGCCUGGUGUGCUCTT; chain 2 GAGCACACCAGGCGGAUGGUU; siRNA; chain 1: DNA at AGT, 2'-fluoro at CU, [invAb] at 5' end, 3' end, backbone not given here; chain 2: sugars from the 5' end rrrfmfmffmmmfmmmfmmmm, backbone not given here) [Site 311]
Mean (mSCNN1A expression normalized to the level of m36B4): 0.23 | Percent Reduction of the mSCNN1A mRNA relative to a non-targeting control siNA: 4.6% | Avg ENaCα Expression (mSCNN1A): 3.83 | Avg 36B4 Expression: 16.80

B uccuGuccAAccuGGGcAG TTB / CUGcccAGGuuGGAcAGGAUU (sense UCCUGUCCAACCUGGGCAGTT; antisense CUGCCCAGGUUGGACAGGAUU; siRNA; sense: DNA at AGT, 2'-fluoro at CU, [invAb] at 5' end, 3' end, backbone not given here; antisense: sugars from the 5' end rrrfffmmmffmmmfmmmmmm, backbone not given here) [Site 1739]
Mean (mSCNN1A expression normalized to the level of m36B4): 0.13 | Percent Reduction of the mSCNN1A mRNA relative to a non-targeting control siNA: 7.3% | Avg ENaCα Expression (mSCNN1A): 2.87 | Avg 36B4 Expression: 22.65

B AGccAGuGGAGccuGuGGu TTB / ACCAcAGGcuccAcuGGcuUU (sense AGCCAGUGGAGCCUGUGGUTT; antisense ACCACAGGCUCCACUGGCUUU; siRNA; sense: DNA at AGT, 2'-fluoro at CU, [invAb] at 5' end, 3' end, backbone not given here; antisense: sugars from the 5' end rrrmfmmmffffmffmmffmm, backbone not given here) [Site 1756]
Mean (mSCNN1A expression normalized to the level of m36B4): 0.12 | Percent Reduction of the mSCNN1A mRNA relative to a non-targeting control siNA: 13.5% | Avg ENaCα Expression (mSCNN1A): 2.58 | Avg 36B4 Expression: 21.66

B GGcuGuGccuAcAucuucu TTB / AGAAGAuGucGGcAcAGccUU (sense GGCUGUGCCUACAUCUUCUTT; antisense AGAAGAUGUCGGCACAGCCUU; siRNA; sense: DNA at AGT, 2'-fluoro at CU, [invAb] at 5' end, 3' end, backbone not given here; antisense: sugars from the 5' end rrrmmmfmffmmfmfmmffmm, backbone not given here) [Site 1387]
Mean (mSCNN1A expression normalized to the level of m36B4): 0.06 | Percent Reduction of the mSCNN1A mRNA relative to a non-targeting control siNA: 59.1% | Avg ENaCα Expression (mSCNN1A): 1.37 | Avg 36B4 Expression: 24.37

B uGuccAAccuGGGcAGccA TTB / UGGcuGcccAGGuuGGAcAUU (sense UGUCCAACCUGGGCAGCCATT; antisense UGGCUGCCCAGGUUGGACAUU; siRNA; sense: DNA at AGT, 2'-fluoro at CU, [invAb] at 5' end, 3' end, backbone not given here; antisense: sugars from the 5' end rrrffmfffmmmffmmmfmmm, backbone not given here) [Site 1742]
Mean (mSCNN1A expression normalized to the level of m36B4): 0.14 | Percent Reduction of the mSCNN1A mRNA relative to a non-targeting control siNA: 1.0% | Avg ENaCα Expression (mSCNN1A): 2.91 | Avg 36B4 Expression: 21.48

B cAcuccuGcuuccAGGAGA TTB / UCUccuGGAAGcAGGAGuGUU (sense CACUCCUGCUUCCAGGAGATT; antisense UCUCCUGGAAGCAGGAGUGUU; siRNA; sense: DNA at AGT, 2'-fluoro at CU, [invAb] at 5' end, 3' end, backbone not given here; antisense: sugars from the 5' end rrrfffmmmmmfmmmmmfmmm, backbone not given here) [Site 1351]
Mean (mSCNN1A expression normalized to the level of m36B4): 0.22 | Percent Reduction of the mSCNN1A mRNA relative to a non-targeting control siNA: 9.6% | Avg ENaCα Expression (mSCNN1A): 2.56 | Avg 36B4 Expression: 11.91

B uGGcuGuGccuAcAucuuc TTB / GAAGAuGuAGGcAcAGccAUU (sense UGGCUGUGCCUACAUCUUCTT; antisense GAAGAUGUAGGCACAGCCAUU; siRNA; sense: DNA at AGT, 2'-fluoro at CU, [invAb] at 5' end, 3' end, backbone not given here; antisense: sugars from the 5' end rrrmmfmfmmmfmfmmffmmm, backbone not given here) [Site 1386]
Mean (mSCNN1A expression normalized to the level of m36B4): 0.09 | Percent Reduction of the mSCNN1A mRNA relative to a non-targeting control siNA: 31.9% | Avg ENaCα Expression (mSCNN1A): 2.35 | Avg 36B4 Expression: 25.00

B uGuGcAAccAGAAcAAAuc TTB / GAUuuGuucuGGuuGcAcAUU (chain 1 UGUGCAACCAGAACAAAUCTT; chain 2 GAUUUGUUCUGGUUGCACAUU; siRNA; B caps on sense ends, letter-case modifications not given here, further chemistry not given here) [Site 782]
Mean (mSCNN1A expression normalized to the level of m36B4): 0.05 | Percent Reduction of the mSCNN1A mRNA relative to a non-targeting control siNA: 78.2% | Avg ENaCα Expression (mSCNN1A): 0.85 | Avg 36B4 Expression: 16.72 | IC50 (mouse cell line, dose response, read-out: Mouse IC50 (potency of ENaCα mRNA knockdown)): 3.9 nM | Mouse % KD (efficacy of ENaCα mRNA knockdown) (mouse cell line, summary): 78%

B cAGAGcAGAAuGAcuucAu TTB / AUGAAGucAuucuGcucuGUU (sense CAGAGCAGAAUGACUUCAUTT; antisense AUGAAGUCAUUCUGCUCUGUU; siRNA; sense: DNA at AGT, 2'-fluoro at CU, [invAb] at 5' end, 3' end, backbone not given here; antisense: sugars from the 5' end rrrmmmffmffffmffffmmm, backbone not given here) [Site 1100]
Mean (mSCNN1A expression normalized to the level of m36B4): 0.24 | Percent Reduction of the mSCNN1A mRNA relative to a non-targeting control siNA: −1.5% | Avg ENaCα Expression (mSCNN1A): 3.43 | Avg 36B4 Expression: 14.25

B GccAGuGGAGccuGuGGuu TTB / AACcAcAGGcuccAcuGGcUU (sense GCCAGUGGAGCCUGUGGUUTT; antisense AACCACAGGCUCCACUGGCUU; siRNA; sense: DNA at AGT, 2'-fluoro at CU, [invAb] at 5' end, 3' end, backbone not given here; antisense: sugars from the 5' end rrrfmfmmmffffmffmmfmm, backbone not given here) [Site 1757]
Mean (mSCNN1A expression normalized to the level of m36B4): 0.11 | Percent Reduction of the mSCNN1A mRNA relative to a non-targeting control siNA: 22.2% | Avg ENaCα Expression (mSCNN1A): 2.58 | Avg 36B4 Expression: 24.24
